# Results taken from PubChem BioAssay AID256 (DTP/NCI, 2004).
# Several values for one entry are separate records, joined by “and”; a condition that tells them apart may be missing. Equal values may be shown once. Toxic doses and inconclusive results are not listed.
# Test system: CD2F1 mice, L1210 leukemia ip, survival T/C
# Assay: NCI In Vivo Anticancer Drug Screen. Data for tumor model L1210 Leukemia (intraperitoneal) in CD2F1 (CDF1) mice
# Details: higher = longer survival
# How it was run: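 Antitumor effect is scored in animals hosting a serially transplanted tumor. Values compare compound-dosed animals against vehicle-only controls as a simple quotient.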
# [1] = endpoint: mean survival time, dose: 100.0 mg/kg/injection, schedule: Q01DX009 (ip), vehicle: saline with Tween-80
# [2] = endpoint: mean survival time, dose: 200.0 mg/kg/injection, schedule: Q01DX009 (ip), vehicle: saline with Tween-80
# [3] = endpoint: mean survival time, dose: 400.0 mg/kg/injection, schedule: Q01DX009 (ip), vehicle: saline with Tween-80
# [4] = endpoint: mean survival time, dose: 100.0 mg/kg/injection, schedule: Q01DX009 (ip), vehicle: saline
# [5] = endpoint: mean survival time, dose: 200.0 mg/kg/injection, schedule: Q01DX009 (ip), vehicle: saline
# [6] = endpoint: mean survival time, dose: 50.0 mg/kg/injection, schedule: Q01DX009 (ip), vehicle: saline with Tween-80
# [7] = endpoint: mean survival time, dose: 100.0 mg/kg/injection, schedule: Q04DX003 (ip), vehicle: saline with Tween-80
# [8] = endpoint: mean survival time, dose: 200.0 mg/kg/injection, schedule: Q04DX003 (ip), vehicle: saline with Tween-80
# [9] = endpoint: mean survival time, dose: 400.0 mg/kg/injection, schedule: Q04DX003 (ip), vehicle: saline with Tween-80
# [10] = endpoint: mean survival time, dose: 5.0 mg/kg/injection, schedule: Q01DX009 (ip), vehicle: saline
# [11] = endpoint: mean survival time, dose: 10.0 mg/kg/injection, schedule: Q01DX009 (ip), vehicle: saline
# [12] = endpoint: mean survival time, dose: 20.0 mg/kg/injection, schedule: Q01DX009 (ip), vehicle: saline
# [13] = endpoint: mean survival time, dose: 50.0 mg/kg/injection, schedule: Q01DX009 (ip), vehicle: saline
# [14] = endpoint: mean survival time, dose: 100.0 mg/kg/injection, schedule: Q04DX002 (ip), vehicle: other
structure (smiles),measurement,setting,value
CCOC(=O)c1cc(=O)[nH]c2ccc(OC)cc12,T/C,[1],98 % of control
same,T/C,[2],104 % of control
same,T/C,[3],104 % of control
Cn1ccc(CON)n1,T/C,[4],94 % of control
same,T/C,[5],93 % of control
N#CCCN(N=O)C(=O)Nc1ccccc1,T/C,"endpoint: mean survival time, dose: 6.25 mg/kg/injection, schedule: Q01DX Z (ip), vehicle: carboxymethylcellulose (CMC)",110 % of control
same,T/C,"endpoint: mean survival time, dose: 12.5 mg/kg/injection, schedule: Q01DX Z (ip), vehicle: carboxymethylcellulose (CMC)",115 % of control
same,T/C,"endpoint: mean survival time, dose: 75.0 mg/kg/injection, schedule: Q01DX Z (ip), vehicle: carboxymethylcellulose (CMC)",102 % of control
CC(CCC(=O)O)(c1ccc(O)cc1)c1ccc(O)cc1,T/C,"endpoint: mean survival time, dose: 100.0 mg/kg/injection, schedule: Q01DX009 (ip), vehicle: other",91 % of control
same,T/C,"endpoint: mean survival time, dose: 200.0 mg/kg/injection, schedule: Q01DX009 (ip), vehicle: other",101 % of control
same,T/C,"endpoint: mean survival time, dose: 400.0 mg/kg/injection, schedule: Q01DX009 (ip), vehicle: other",97 % of control
COC(c1ccccc1)C(C)O (centres undefined),T/C,[6],100 % of control
same,T/C,[1],100 % of control
same,T/C,[2],95 % of control
O=C(O)/C=C/c1ccc([N+](=O)[O-])o1,T/C,"endpoint: mean survival time, dose: 25.0 mg/kg/injection, schedule: Q01DX001 (ip), vehicle: saline with Tween-80",96 % of control
same,T/C,"endpoint: mean survival time, dose: 50.0 mg/kg/injection, schedule: Q01DX001 (ip), vehicle: saline with Tween-80",89 % of control
same,T/C,"endpoint: mean survival time, dose: 100.0 mg/kg/injection, schedule: Q01DX001 (ip), vehicle: saline with Tween-80",115 % of control and 98 % of control
same,T/C,"endpoint: mean survival time, dose: 200.0 mg/kg/injection, schedule: Q01DX001 (ip), vehicle: saline with Tween-80",94 % of control
CC(=O)Oc1cc(C(C)(C)C)c(OC(C)=O)c(N=[N+]=[N-])c1C(C)(C)C,T/C,[7],96 % of control
same,T/C,[8],101 % of control
same,T/C,[9],96 % of control
Clc1ccc(C[n+]2ccccc2)cc1Cl,T/C,[10],98 % of control
same,T/C,[11],104 % of control
same,T/C,"endpoint: mean survival time, dose: 10.0 mg/kg/injection, schedule: Q04DX003 (ip), vehicle: saline",100 % of control
same,T/C,[12],98 % of control
same,T/C,"endpoint: mean survival time, dose: 20.0 mg/kg/injection, schedule: Q04DX003 (ip), vehicle: saline",94 % of control
CCC(=O)Nc1cccc(OS(=O)(=O)N(C)C)c1,T/C,[8],97 % of control
same,T/C,[9],94 % of control
CC#CC(=O)OC,T/C,[6],104 % of control
same,T/C,[1],104 % of control
same,T/C,[2],96 % of control
CCOc1ccc(Nc2ncnc3nc[nH]c23)cc1CN(CCCl)CCCl,T/C,"endpoint: mean survival time, dose: 2.0 mg/kg/injection, schedule: Q01DX009 (ip), vehicle: saline sonified",116 % of control
same,T/C,"endpoint: mean survival time, dose: 4.0 mg/kg/injection, schedule: Q01DX009 (ip), vehicle: saline sonified",117 % of control
same,T/C,"endpoint: mean survival time, dose: 8.0 mg/kg/injection, schedule: Q01DX009 (ip), vehicle: saline sonified",116 % of control
N=C(N)c1ccc(Nc2ccc(-c3cc4ccc(C(=N)N)cc4[nH]3)cc2)cc1,T/C,"endpoint: median survival time, dose: 3.75 mg/kg/injection, schedule: Q01DX005 (ip), vehicle: saline",326 % of control
same,T/C,"endpoint: median survival time, dose: 4.5 mg/kg/injection, schedule: Q01DX005 (ip), vehicle: saline",168 % of control
same,T/C,"endpoint: median survival time, dose: 7.5 mg/kg/injection, schedule: Q01DX005 (ip), vehicle: saline",182 % of control and 271 % of control
same,T/C,"endpoint: median survival time, dose: 12.49 mg/kg/injection, schedule: Q01DX005 (ip), vehicle: saline",150 % of control
same,T/C,"endpoint: median survival time, dose: 20.83 mg/kg/injection, schedule: Q01DX005 (ip), vehicle: saline",101 % of control
O=P(NC1CCCCC1)(NC1CCCCC1)NC1CCCCC1,T/C,"endpoint: mean survival time, dose: 50.0 mg/kg/injection, schedule: Q04DX003 (ip), vehicle: saline with Tween-80",93 % of control
same,T/C,[7],90 % of control
same,T/C,[8],91 % of control
OCCNc1c(Cl)ccc(Cl)c1Cl,T/C,[6],107 % of control
same,T/C,[1],103 % of control
same,T/C,[2],98 % of control
CCOC(=O)C1(C(=O)OCC)C(C)CC(O)N1C(=O)c1cc2c(cc1[N+](=O)[O-])OCO2 (centres undefined),T/C,"endpoint: mean survival time, dose: 100.0 mg/kg/injection, schedule: Q01DX001 (ip), vehicle: Klucel (hydroxypropylcellulose) (HPC)",100 % of control
same,T/C,"endpoint: mean survival time, dose: 200.0 mg/kg/injection, schedule: Q01DX001 (ip), vehicle: Klucel (hydroxypropylcellulose) (HPC)",100 % of control
same,T/C,"endpoint: mean survival time, dose: 400.0 mg/kg/injection, schedule: Q01DX001 (ip), vehicle: Klucel (hydroxypropylcellulose) (HPC)",104 % of control
O=C(O)C1C=CCC(C(=O)O)C1 (centres undefined),T/C,[13],101 % of control
same,T/C,[4],97 % of control
same,T/C,[5],101 % of control
COC(=O)/C=C/C=C/C(=O)OC,T/C,[1],96 % of control
same,T/C,[7],103 % of control
same,T/C,[2],96 % of control
same,T/C,[8],112 % of control
same,T/C,[3],104 % of control
same,T/C,[9],103 % of control
CC(C)(C)CC(C)(C)c1ccc(OCCOc2ccc(C(=O)Nc3ccc(S(=O)(=O)Oc4ccccc4)cc3)cc2[N+](=O)[O-])cc1,T/C,"endpoint: mean survival time, dose: 100.0 mg/kg/injection, schedule: Q01DX009 (ip), vehicle: Klucel (hydroxypropylcellulose) (HPC)",101 % of control
same,T/C,[7],98 % of control
same,T/C,"endpoint: mean survival time, dose: 200.0 mg/kg/injection, schedule: Q01DX009 (ip), vehicle: Klucel (hydroxypropylcellulose) (HPC)",106 % of control
same,T/C,[8],93 % of control
same,T/C,"endpoint: mean survival time, dose: 400.0 mg/kg/injection, schedule: Q01DX009 (ip), vehicle: Klucel (hydroxypropylcellulose) (HPC)",95 % of control
same,T/C,[9],92 % of control
CCCNC(=O)Oc1ccc(C(=O)OCC)cc1,T/C,"endpoint: mean survival time, dose: 100.0 mg/kg/injection, schedule: Q04DX003 (ip), vehicle: saline",97 % of control
same,T/C,"endpoint: mean survival time, dose: 200.0 mg/kg/injection, schedule: Q04DX003 (ip), vehicle: saline",101 % of control
same,T/C,"endpoint: mean survival time, dose: 400.0 mg/kg/injection, schedule: Q04DX003 (ip), vehicle: saline",106 % of control
Cc1ccc(NC(=O)CI)cc1,T/C,[14],102 % of control
CCSCCCO,T/C,"endpoint: mean survival time, dose: 75.0 mg/kg/injection, schedule: Q04DX003 (ip), vehicle: saline",95 % of control
same,T/C,"endpoint: mean survival time, dose: 150.0 mg/kg/injection, schedule: Q04DX003 (ip), vehicle: saline",97 % of control
same,T/C,"endpoint: mean survival time, dose: 300.0 mg/kg/injection, schedule: Q04DX003 (ip), vehicle: saline",103 % of control
O=C(NC(=S)Nc1cccc(F)c1)c1cccc(Br)c1,T/C,"endpoint: mean survival time, dose: 50.0 mg/kg/injection, schedule: Q01DX009 (ip), vehicle: other",98 % of control and 104 % of control
same,T/C,"endpoint: mean survival time, dose: 50.0 mg/kg/injection, schedule: Q04DX003 (ip), vehicle: other",111 % of control
same,T/C,"endpoint: mean survival time, dose: 100.0 mg/kg/injection, schedule: Q01DX001 (ip), vehicle: other",102 % of control
same,T/C,[14],95 % of control
same,T/C,"endpoint: mean survival time, dose: 100.0 mg/kg/injection, schedule: Q04DX003 (ip), vehicle: other",104 % of control
same,T/C,"endpoint: mean survival time, dose: 200.0 mg/kg/injection, schedule: Q01DX001 (ip), vehicle: other",98 % of control
same,T/C,"endpoint: mean survival time, dose: 200.0 mg/kg/injection, schedule: Q04DX002 (ip), vehicle: other",91 % of control
same,T/C,"endpoint: mean survival time, dose: 200.0 mg/kg/injection, schedule: Q04DX003 (ip), vehicle: other",102 % of control
same,T/C,"endpoint: mean survival time, dose: 400.0 mg/kg/injection, schedule: Q04DX002 (ip), vehicle: other",101 % of control
same,T/C,"endpoint: mean survival time, dose: 400.0 mg/kg/injection, schedule: Q04DX003 (ip), vehicle: other",106 % of control
CCOC(=O)C1=C(C)NC(=O)NN1C(=O)OCC,T/C,"endpoint: mean survival time, dose: 12.5 mg/kg/injection, schedule: Q01DX009 (ip), vehicle: saline",94 % of control
same,T/C,"endpoint: mean survival time, dose: 25.0 mg/kg/injection, schedule: Q01DX009 (ip), vehicle: saline",87 % of control
same,T/C,[13],94 % of control
CCNCc1cc(Nc2nc(NC3CCC(N(C)C)CC3)c3ccccc3n2)ccc1OC (centres undefined),T/C,"endpoint: mean survival time, dose: 5.0 mg/kg/injection, schedule: Q01DX001 (ip), vehicle: saline",97 % of control
same,T/C,[10],96 % of control
same,T/C,"endpoint: mean survival time, dose: 10.0 mg/kg/injection, schedule: Q01DX001 (ip), vehicle: saline",92 % of control
same,T/C,[11],96 % of control
same,T/C,"endpoint: mean survival time, dose: 20.0 mg/kg/injection, schedule: Q01DX001 (ip), vehicle: saline",97 % of control
same,T/C,[12],107 % of control
O=C(O)c1ccccc1SSc1ccccc1C(=O)O,T/C,[6],89 % of control
same,T/C,[1],101 % of control
same,T/C,[7],102 % of control
same,T/C,[2],95 % of control
same,T/C,[8],104 % of control
O=C(CBr)Nc1c2c(nc3ccccc13)CCCC2,T/C,"endpoint: mean survival time, dose: 75.0 mg/kg/injection, schedule: Q01DX001 (ip), vehicle: saline with Tween-80",101 % of control
same,T/C,"endpoint: mean survival time, dose: 150.0 mg/kg/injection, schedule: Q01DX001 (ip), vehicle: saline with Tween-80",104 % of control
same,T/C,"endpoint: mean survival time, dose: 300.0 mg/kg/injection, schedule: Q01DX001 (ip), vehicle: saline with Tween-80",94 % of control
CCOC1(c2ccccc2)c2ccccc2C(C)(C)c2ccccc21,T/C,[7],92 % of control
same,T/C,[9],92 % of control
